Earlier results on two compounds are cited in patent US20210022978A1, “BUMETANIDE DERIVATIVES FOR THE THERAPY OF HYPERHIDROSIS” (ZILENTIN AG, priority 2018, published 2021).

Data set [1] concerns rAceMIF.
Data set [2] concerns the target T1, NKCC in sweat glands (Homo sapiens, UniProt P55011).
T1 construct: host or cells: sweat glands (in vivo)
T1 sequence (P55011 1-1212): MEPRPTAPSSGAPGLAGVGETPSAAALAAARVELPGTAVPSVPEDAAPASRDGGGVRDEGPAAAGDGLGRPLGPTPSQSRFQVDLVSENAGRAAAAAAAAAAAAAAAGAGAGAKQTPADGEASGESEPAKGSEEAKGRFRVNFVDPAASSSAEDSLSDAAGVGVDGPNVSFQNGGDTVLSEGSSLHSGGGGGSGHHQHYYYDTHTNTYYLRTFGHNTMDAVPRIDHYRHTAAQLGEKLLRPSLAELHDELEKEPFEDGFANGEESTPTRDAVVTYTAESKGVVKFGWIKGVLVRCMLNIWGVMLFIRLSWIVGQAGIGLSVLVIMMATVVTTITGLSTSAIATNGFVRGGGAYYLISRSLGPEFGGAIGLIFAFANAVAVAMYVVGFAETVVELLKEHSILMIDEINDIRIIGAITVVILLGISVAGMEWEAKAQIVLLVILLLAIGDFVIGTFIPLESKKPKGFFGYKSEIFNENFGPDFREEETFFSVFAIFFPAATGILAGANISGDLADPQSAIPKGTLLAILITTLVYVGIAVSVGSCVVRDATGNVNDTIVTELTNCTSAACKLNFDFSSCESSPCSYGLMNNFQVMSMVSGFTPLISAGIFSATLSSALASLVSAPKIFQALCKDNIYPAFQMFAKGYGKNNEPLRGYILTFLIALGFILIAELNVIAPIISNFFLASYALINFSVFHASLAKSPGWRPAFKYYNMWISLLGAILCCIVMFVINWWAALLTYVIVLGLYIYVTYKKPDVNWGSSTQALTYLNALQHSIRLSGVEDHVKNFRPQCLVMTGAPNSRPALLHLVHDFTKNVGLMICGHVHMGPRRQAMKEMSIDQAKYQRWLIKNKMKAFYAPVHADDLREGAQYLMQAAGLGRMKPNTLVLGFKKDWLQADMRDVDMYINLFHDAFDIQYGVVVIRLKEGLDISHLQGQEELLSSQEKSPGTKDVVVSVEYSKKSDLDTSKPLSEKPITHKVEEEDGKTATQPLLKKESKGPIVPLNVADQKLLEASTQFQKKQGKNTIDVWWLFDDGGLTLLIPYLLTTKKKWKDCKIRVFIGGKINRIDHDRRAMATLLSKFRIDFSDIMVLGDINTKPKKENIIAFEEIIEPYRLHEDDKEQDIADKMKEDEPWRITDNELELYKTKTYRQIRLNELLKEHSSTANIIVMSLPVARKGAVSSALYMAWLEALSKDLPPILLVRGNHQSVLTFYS

For data set [3], the system named is conditioned anxiety. The note with it: rats, compared with the vehicle alone.

Consider `NS(=O)(=O)c1cc(C(=O)O)c(NCc2ccco2)cc1Cl` [furosemide], for which the “inhibition of rAceMIF tautomerase activity” value in data set [1] is on record as “submicromolar”. Take `CCCCNc1cc(C(=O)O)cc(S(N)(=O)=O)c1Oc1ccccc1` [bumetanide, 3-(butylamino)-4-phenoxy-5-sulfamoylbenzoic acid]: the “effectiveness in treating hyperhidrosis” value in data set [2] is reported as “partly effective”. The “percentage of test period freezing” value in data set [3] is reported as “significantly smaller percentage of test period freezing”.
